Results on 33 compounds are retold here after patent US5180742A, “Quinone derivatives, their production and use” (Takeda Chemical Industries, Ltd., priority 1984, dated 1993).

pIC50: −log10 of the molar value.

The pIC50 is −log10 of the IC50, conventionally taken in molar units. A word on the inhibition in vivo: it is the change of the read-out against control, counted positive when it falls. Lower therefore signals little suppression.

The target of the first assay is T1, 5-Lipoxygenase (Rattus norvegicus, UniProt P12527).
T1 construct: endogenous in cells; host or cells: RBL-1 (rat basophilic leukemia cells)
T1 sequence (P12527 1-673): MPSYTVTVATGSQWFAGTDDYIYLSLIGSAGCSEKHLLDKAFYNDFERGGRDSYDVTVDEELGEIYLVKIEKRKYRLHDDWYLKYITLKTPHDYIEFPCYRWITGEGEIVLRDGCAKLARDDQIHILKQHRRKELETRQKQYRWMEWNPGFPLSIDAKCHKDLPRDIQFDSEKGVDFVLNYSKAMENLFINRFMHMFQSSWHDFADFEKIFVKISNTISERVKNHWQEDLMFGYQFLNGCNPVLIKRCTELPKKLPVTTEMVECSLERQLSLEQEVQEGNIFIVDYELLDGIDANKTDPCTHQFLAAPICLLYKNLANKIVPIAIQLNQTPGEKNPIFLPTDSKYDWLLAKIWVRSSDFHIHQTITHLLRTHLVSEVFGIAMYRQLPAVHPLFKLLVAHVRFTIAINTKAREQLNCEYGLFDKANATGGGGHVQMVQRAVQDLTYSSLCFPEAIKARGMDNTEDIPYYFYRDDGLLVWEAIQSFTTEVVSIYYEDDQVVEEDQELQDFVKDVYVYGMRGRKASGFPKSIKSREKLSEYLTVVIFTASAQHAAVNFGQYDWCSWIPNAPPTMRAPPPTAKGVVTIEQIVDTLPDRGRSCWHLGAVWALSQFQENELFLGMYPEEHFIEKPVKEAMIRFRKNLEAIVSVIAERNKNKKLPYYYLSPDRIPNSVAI
In words: 5-Lipoxygenase inhibitory activity: 5-HETE production in RBL-1 cells (HPLC). Conditions: arachidonic acid + A 23187, 37° C., 20 minutes, read-out: 5-HETE production inhibiting effect (IC50). In kind it is cell-based, rat (RBL-1, rat basophilic leukemia cells). Here is the method: 5-Lipoxygenase Inhibitory Activity
10^7 RBL-1 cells (rat basophilic leukemia cells) were suspended in 0.5 ml of MCM (mast cell medium), and test solutions (made up of 0.5 ml of MCM, 50 μg of arachidonic acid, 10 μg of A 23187 (calcium ionophore, Eli Lilly) and 1 μM, 0.1 μM, 0.01 μM and0.001 μM as the final concentration of the quinone compound, respectively) prepared previously were added respectively to the suspension, followed by reaction at 37° C. for 20 minutes. After the conclusion of the reaction, 4 ml of ethanol and 1,4-dimethoxy-2-methyl-3-(3-methoxypropyl)naphthalene as the internal reference drug were added to the reaction solution, and the mixture was shaken thoroughly and allowed to stand at room temperature for 10 minutes. Then, it was centrifuged (2000 r.p.m.) for 10 minutes, and the supernatant fluid was separated and concentrated to dryness under reduced pressure. 0.5 Milliliter of 60% aqueous methanol was added to the concentrate, and 100 μl of the resulting solution was taken and subjected to high-performance liquid chromatography to determine amount of 5-HETE (5-hydroxyeicosatetraenoic acid). Determination of 5-HETE was made through measurement of an absorption at 237 nm with a UV absorption monitor.
The 5-HETE production inhibitory effect (IE) was expressed by [formula] wherein a is a peak height or peak area corrected by the peak for the internal reference when the quinone compound is not contained; b is a peak height or peak area corrected by the peak for the internal reference when the quinone compound is contained.
Consider `CCOC(=O)CCCCC(C1=C(C)C(=O)C(C)=C(C)C1=O)c1cccs1` (stereo not drawn) [Compound No. 1, ethyl 6-(3,5,6-trimethyl-1,4-benzoquinon-2-yl)-6-(2-thienyl)hexanoate], for which the pIC50 was 7.10. Turning to `CCOC(=O)CCCCC(C1=C(C)C(=O)c2ccccc2C1=O)c1cccs1` (stereo not drawn) [Compound No. 3], the pIC50 is 7.22. The same measure, in the same setting: with `CCOC(=O)CCCCC(C1=C(C)C(=O)c2ccccc2C1=O)c1ccccc1` (stereo not drawn) [Compound No. 5] the figure was 7.52; with `CCOC(=O)CCCCC(C1=C(C)C(=O)C(OC)=C(OC)C1=O)c1cccs1` (stereo not drawn) [Compound No. 6], 7.55. Regarding `CCOC(=O)CCCCC(C1=C(C)C(=O)C(OC)=C(OC)C1=O)c1ccccc1` (stereo not drawn) [Compound No. 7], the pIC50 is 6.85. Same read-out and setting: with `CC1=C(C)C(=O)C(C(CCCCCCC(=O)O)c2ccccc2)=C(C)C1=O` (stereo not drawn) [Compound No. 9, 8-phenyl-8-(3,5,6-trimethyl-1,4-benzoquinon-2-yl)octanoic acid] the figure was 7.49. Same read-out and setting: then `CC1=C(C)C(=O)C(C(CCCCC(=O)O)c2ccccc2)=C(C)C1=O` (stereo not drawn) [Compound No. 10], with 7.47; and `CC1=C(C)C(=O)C(C(CCCCCCCCC(=O)O)c2ccccc2)=C(C)C1=O` (stereo not drawn) [Compound No. 11], with 7.47; and `CC1=C(C(CCCCC(=O)O)c2cccs2)C(=O)c2ccccc2C1=O` (stereo not drawn) [Compound No. 13], with 7.10. The same measure, in the same setting: then `CC1=C(C(CCCCCCC(=O)O)c2ccccc2)C(=O)c2ccccc2C1=O` (stereo not drawn) [Compound No. 14], with 6.70; and `CC1=C(C)C(=O)C(C(CCC(=O)O)c2ccccc2)=C(C)C1=O` (stereo not drawn) [Compound No. 35, 4-(3,5,6-trimethyl-1,4-benzoquinon-2-yl)-4-phenylbutyric acid], with 6.36. Take `COC1=C(OC)C(=O)C(C(CCC(=O)O)c2ccccc2)=C(C)C1=O` (stereo not drawn) [Compound No. 39]: the pIC50 is 5.89. Turning to `CC1=C(C)C(=O)C(C(CCCCCCO)c2ccccc2)=C(C)C1=O` (stereo not drawn) [Compound No. 45, 7-(3,5,6-trimethyl-1,4-benzoquinon-2-yl)-7-phenylheptanol], the pIC50 is 7.55. The same measure, in the same setting: with `COC1=C(OC)C(=O)C(C(CCCCCCO)c2ccccc2)=C(C)C1=O` (stereo not drawn) [Compound No. 56, 7-(5,6-dimethoxy-3-methyl-1,4-benzoquinon-2-yl)-7-phenylheptanol] the figure was 7.21; with `CC1=C(C(CCCCCCCCC(=O)O)c2ccccc2)C(=O)c2ccccc2C1=O` (stereo not drawn) [compound 15], 7.30. Still for that read-out and setting: with `COC1=C(OC)C(=O)C(C(CCCCC(=O)O)c2ccccc2)=C(C)C1=O` (stereo not drawn) [compound 16] the figure was 7.49; with `COC1=C(OC)C(=O)C(C(CCCCC(=O)O)c2cccs2)=C(C)C1=O` (stereo not drawn) [compound 17], 6.70; with `COC1=C(OC)C(=O)C(C(CCCCCCC(=O)O)c2ccccc2)=C(C)C1=O` (stereo not drawn) [compound 18], 6.70. Still for that read-out and setting: then `CC1=C(C)C(=O)C(C(CCCO)c2ccccc2)=C(C)C1=O` (stereo not drawn) [compound 46], with 6.14.

The subject of a further assay is PAF-induced bronchoconstriction. In words: Effect on PAF-induced bronchoconstriction in guinea pigs. In kind it is in vivo. Conditions: 0.31 mg/kg oral, one hour before PAF. Here is the method:
Platelet Activating Factor (PAF)-Induced Bronchoconstriction in Guinea Pigs
Experimental procedure in this experiment was the same as that in LTD4 -induced bronchoconstriction shown in Experimental example 7. PAF is an intraveneous dose of 1 μg/kg was used. Each specimen suspended in a 5% gum arabic solution was given orally one hour before the PAF administration.
For the compound `CC1=C(C)C(=O)C(C(CCCCCC(N)=O)c2ccccc2)=C(C)C1=O` (stereo not drawn) [compound 146, 7-(3,5,6-trimethyl-1,4-benzoquinon-2-yl)-7-phenylheptanamide], the “% Inhibition of PAF-induced bronchoconstriction” value (shortened to “% Inhibition”) is recorded as 49.7%.

The same assay, now with this note: 1.25 mg/kg oral, one hour before PAF.
`CC1=C(C)C(=O)C(C(CCCCCC(N)=O)c2ccccc2)=C(C)C1=O` (stereo not drawn) [compound 146, 7-(3,5,6-trimethyl-1,4-benzoquinon-2-yl)-7-phenylheptanamide]: the “% Inhibition” value stood at 80.3%.

The assay is the same for the next values; noted with them: 5 mg/kg oral, one hour before PAF.
Consider `CC1=C(C)C(=O)C(C(CCCCCC(N)=O)c2ccccc2)=C(C)C1=O` (stereo not drawn) [compound 146, 7-(3,5,6-trimethyl-1,4-benzoquinon-2-yl)-7-phenylheptanamide], for which the “% Inhibition” value was 100.0%. The same measure, in the same setting: with `CC1=C(C)C(=O)C(C(CCCCCC(=O)N2CCN(CCc3ccccc3)CC2)c2ccccc2)=C(C)C1=O` (stereo not drawn) [compound 163, 4-[7-(3,5,6-trimethyl-1,4-benzoquinon-2-yl)-7-phenylheptanoyl]-(2-phenylethyl)piperazine] the figure was 59.9%.

For a further assay, the system named is Immunoglobulin-G1 mediated bronchoconstriction reaction. In words: Action on immunoglobulin-G1 mediated bronchoconstriction reaction in guinea pigs. In kind it is in vivo, Hartley guinea pigs. Conditions: Cavia porcellus; 20 mg/kg oral, 1 hour before antigen. How it is done:
Action on the Immunoglobulin-G1 Mediated Bronchoconstriction Reaction in Guinea Pigs
In accordance with the method of Orange and Moore (Orange, R. P. and Moore E. G. , J. Immunol., 116, 392-397, 1976), female and male Hartley guinea pigs weighing about 350 g were sensitized by intraperitoneal application of an emulsion (1 ml) composed of egg albumin (1 mg) and Freund's complete adjuvant (produced by Wako Pure-Chemical Industries, Ltd. of Japan). 3 Weeks after the sensitization, a serum antibody level in the sensitized guinea pigs was measured by means of the 3-hours passive cutaneous anaphylaxis (PCA) reaction in guinea pigs. […] The broncoconstriction reaction resulting from the antigen-antibody reaction was measured in accordance with the Konzett-Rossler method (Konzett, H. and Rossler, R., Naunyn-Schmiedeberg'ss Arch. exp. Path. pharmak., 195, 71-74, 1940). The guinea pigs were fixed on the dorsal position under anesthesia with a urethane (1.5 g/kg given intraperitonealy). An incision was made through the trachea, which was connected to an artificial respirator (manufactured by Harvard Co.) through an endotracheal tube, with a side tube of the endotracheal tube being attached to a brochoconstricting transducer (type 7020, manufactured by Ugobasile Co.). While an air volume per ventilation was adjusted to 5 to 7 ml and an air ventilation rate was controlled at 70 times/min., with a load pressure to the lung set at 10 cm H2 O, the overflown air volume was recorded on Rectigraphy-8S (manufactured by Sanei Sokki Inc. of Japan) through a transducer. After 1 mg/kg of gallamine triethiodide was given intravenously to the animals, 1 mg/kg of antigen, egg albumin dissolved in physiological saline, was applied intravenously to induce a brochoconstriction reaction. The bronchconstriction reaction was recorded for the period of time of 15 minutes. A drug was suspended in 5% gum arabic solution, and given orally 1 hour before the application of the antigen. Percent inhibition of the immunoglobuin G1 mediated bronchoconstriction reaction in guinea pigs are shown below in Table 3.
`CC1=C(C)C(=O)C(C(CCCCCCC(=O)O)c2ccccc2)=C(C)C1=O` (stereo not drawn) [Compound No. 9, 8-phenyl-8-(3,5,6-trimethyl-1,4-benzoquinon-2-yl)octanoic acid] yielded an inhibition in vivo at 20 mg/kg of 71%.

`CC1=C(C)C(=O)C(C(CCCCC(=O)O)c2ccccc2)=C(C)C1=O` (stereo not drawn) [Compound No. 10] had an inhibition in vivo at 20 mg/kg of 80%. In turn, `CC1=C(C(CCCCC(=O)O)c2ccccc2)C(=O)c2ccccc2C1=O` (stereo not drawn) [Compound No. 12] yielded an inhibition in vivo at 20 mg/kg of 78%. Turning to `CC1=C(C(CCCCCCC(=O)O)c2ccccc2)C(=O)c2ccccc2C1=O` (stereo not drawn) [Compound No. 14], the inhibition in vivo at 20 mg/kg is 78%. The compound `CC1=C(C)C(=O)C(C(CCCCCCO)c2ccccc2)=C(C)C1=O` (stereo not drawn) [Compound No. 45, 7-(3,5,6-trimethyl-1,4-benzoquinon-2-yl)-7-phenylheptanol] showed an inhibition in vivo at 20 mg/kg of 91%. `CC1=C(C)C(=O)C(C(CCCCCCC(=O)O)c2ccc3c(c2)CCC3)=C(C)C1=O` (stereo not drawn) [compound 25] showed an inhibition in vivo at 20 mg/kg of 83%.

On to `COc1ccc(C(CCCCCC(=O)O)C2=C(C)C(=O)c3ccccc3C2=O)cc1` (stereo not drawn) [compound 26], for which the inhibition in vivo at 20 mg/kg amounted to 85%. Regarding `CC1=C(C(CCCCCC(=O)O)c2ccc3ccccc3c2)C(=O)c2ccccc2C1=O` (stereo not drawn) [compound 27], at 20 mg/kg the inhibition in vivo was 81%. On the same count and under the same terms, then `CC1=C(C(CCCCCC(=O)O)c2ccc3c(c2)CCC3)C(=O)c2ccccc2C1=O` (stereo not drawn) [compound 28], with 85%.

For `CC1=C(C(CCCCCCC(=O)O)c2ccc3c(c2)CCC3)C(=O)c2ccccc2C1=O` (stereo not drawn) [compound 29], testing at 20 mg/kg gave an inhibition in vivo of 81%. `CC1=C(C(CCCC(=O)O)c2ccccc2)C(=O)c2ccccc2C1=O` (stereo not drawn) [compound 38] had an inhibition in vivo at 20 mg/kg of 73%.

In the case of `CCCCCCC(C1=C(C)C(=O)C(C)=C(C)C1=O)c1ccccc1` (stereo not drawn) [compound 49], 20 mg/kg produced 84% inhibition in vivo. As for `CC1=C(C)C(=O)C(C(CCCCCCOC(N)=O)c2ccccc2)=C(C)C1=O` (stereo not drawn) [compound 59], 20 mg/kg produced 83% inhibition in vivo.

Compound `CC1=C(C)C(=O)C(C(CCCCCCCO)c2ccc3c(c2)CCC3)=C(C)C1=O` (stereo not drawn) [compound 76] returned an inhibition in vivo at 20 mg/kg of 89%. The same measure, in the same setting: then `CC1=C(C(CCCCCC(=O)O)c2ccccc2)C(=O)c2ccccc2C1=O` (stereo not drawn) [compound 86], with 80%; and `CC1=C(C(CCCCCC(=O)O)c2ccc(F)cc2)C(=O)c2ccccc2C1=O` (stereo not drawn) [compound 89], with 65%.
